One compound from PMC11582173, “Synthesis, cytotoxicity, anti-inflammatory, anti-metastatic and anti-oxidant activities of novel chalcones incorporating 2-phenoxy-N-arylacetamide and thiophene moieties: induction of apoptosis in MCF7 and HEP2 cells” (Naunyn-Schmiedeberg's Archives of Pharmacology, 2024) can be followed below.

Several values for one entry are separate records, joined by “and”; a condition that tells them apart may be missing. Equal entries are not always repeated.

Common to all, as to assay type: cell-based, human
One assay deals with Caspase 8. In words: ELISA, Caspase 8 concentration. As to the method: (§1) The concentrations of matrix metalloproteinase-2 (MMP2), matrix metalloproteinase-9 (MMP9), Bcl2, BAX, P53, Malondialdehyde (MDA), Glutathione (GSH), caspase 8, caspase 9 and IL-6 were measured quantitatively in 5c treated MCF7 and HEP2 cells using ELISA (Enzyme-Linked Immunosorbent Assay) (Table 4). Gelatinases are a collective word for MMP-2 and MMP-9, where MMP-2 is gelatinase-A and MMP-9 is gelatinase-B. Solid tumor invasion, metastasis, and angiogenesis have long been linked to gelatinases (Das et al. [2021]). […] Bcl2 is a crucial protein that targets apoptosis inhibition. It is regarded as a predictive biomarker or therapeutic target in the diagnosis of cancer due to its broad expression in a variety of cancers (Porter et al. [2009]). […] The pro-apoptotic protein BAX permeabilizes the mitochondrial outer membrane by changing from a cytosolic monomer to a hazardous oligomer triggering the apoptosis process (Fulda and Debatin [2006]). […] P53 transcription factor performs an essential tumor suppressor role by coordinating a wide range of physiological responses, including DNA repair, cell cycle arrest, cellular senescence, cell death, cell differentiation, and metabolism (Liebl and Hofmann [2021]). It was activated in MCF7 and HEP2-treated cells with values (4.28 and 3.109 ng/mL), respectively, compared to their controls (3.44 and 2.06 ng/mL). […]
For orientation: In an ELISA, binding on a coated surface is turned into a signal by an enzyme label.

Another assay relates to BAX. In words: ELISA, BAX concentration. Here is the method:
as §1

Another assay concerns HEP2 cells. The experiment in a line: Flow cytometric analysis of cell cycle, HEP2. As to conditions: HEP2, IC50 of 5c, 48 h. Here is the method:
In the G0-G1 stage, the percentage of 5c-treated cells declined to 55.4% as opposed to 57.6% of untreated control cells. It was found in a previous work that lutein-induced G2/M phase arrest in A549 and PC-9 cells (Di et al. [2019]).
In DMEM-supplemented media, cells were plated in 12-well plates at a cell density of 6–8×10^5 per well. After twenty-four hours, cells were cultured for an additional 48 hours with the IC50 of the target compound. The untreated cells were used as a negative control. After 48 h of incubation, the treated cells were centrifuged at 1,200 rpm and 4 °C for 10 min. After discarding the supernatant, the wells were then given a single phosphate-buffered saline (PBS) wash and then centrifuged for 10 min at 1,200 rpm. Trypsin/EDTA was used to collect the cells, and after one PBS wash, they were resuspended in 0.5 mL of 0.05% Triton X-100 for 10 min at room temperature. Each cell suspension was stained by being given 1 mL of 50 µg/mL propidium iodide (PI) to be left at room temperature in the darkness for 20 minutes. The analysis of the cell cycle was done by a flow cytometer (Becton Dickenson (BD) FACSCalibur, USA) (Michalkova et al. [2022]).

For another assay, the system named is Malondialdehyde (MDA). The experiment in a line: ELISA, MDA concentration. As to the method:
as §1

As for `COc1ccc(NC(=O)COc2ccc(C=CC(=O)c3cccs3)cc2)cc1` [Compound 5c, N-(4-Methoxyphenyl)-2-(4-(3-oxo-3-(thiophen-2-yl)prop-1-en-1-yl)phenoxy)acetamide], the Caspase8 concentration in the assay with Caspase 8 (5c treated HEP2 cells, untreated 0.187±0.025) is 2.27 ng/mL and 2.27 ± 0.142 ng/mL; in the assay on Caspase 8 (5c treated MCF7 cells, untreated 0.162±0.0203), 2.13 ng/mL and 2.13 ± 0.268 ng/mL. The BAX concentration with BAX (5c treated HEP2 cells, untreated 1261.8±7.38) was 1342.8 pg/mL and 1342.8 ± 12.7 pg/mL; in the assay with BAX (5c treated MCF7 cells, untreated 946.30±12.7) it was 1099.36 pg/mL and 1099.36 ± 12.8 pg/mL. The “Percentage of DNA in G2-M phase” value in the assay with HEP2 cells (untreated control 2.205±0.10607) was 3.56% and 3.565±0.1485%. Moreover, in the assay with HEP2 cells (untreated control 40.095±0.36062), the “Percentage of DNA in S phase” value is 40.96% and 40.96±0.08485%. For the same compound, the “Percentage of DNA in G0-G1 phase” value in the assay with HEP2 cells (untreated control 57.67±0.21213) was 55.4% and 55.475±0.233%. The MDA concentration is 11.988 nM and 11.988 ± 0.178 nM in the assay with Malondialdehyde (MDA) (5c treated HEP2 cells, untreated 17.44±0.309); 8.79 nM and 8.79 ± 0.309 nM with Malondialdehyde (MDA) (5c treated MCF7 cells, untreated 15.79±0.178).
